Laboratory results taken from patent US9951063B2, “8-(piperazin-1-yl)-1,2,3,4-tetrahydro-isoquinoline derivatives” (IDORSIA PHARMACEUTICALS LTD, priority 2014, dated 2018).

Molecular target: human CXCR3A (Homo sapiens (Human), UniProt P49682)
Experiment: FLIPR assay (inhibition of CXCL10-induced calcium signal)
Type: cell-based
Conditions: engineered CHO-K1 cells expressing human CXCR3A coupled to Galpha(16); Fluo-4-AM; CXCL10 agonist 20 nM; mean values where determined several times
Procedure, shortened: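 CHO-K1 cells expressing human CXCR3A coupled to Gα16 were loaded with Fluo-4-AM for 1 h in HBSS/20 mM Hepes pH 7.4 with probenecid. Compound was added, then CXCL10 (20 nM as dispensed). Baseline-subtracted peak fluorescence gave inhibition curves and IC50, averaged over repeats.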

Sequence of human CXCR3A (P49682 whole entry): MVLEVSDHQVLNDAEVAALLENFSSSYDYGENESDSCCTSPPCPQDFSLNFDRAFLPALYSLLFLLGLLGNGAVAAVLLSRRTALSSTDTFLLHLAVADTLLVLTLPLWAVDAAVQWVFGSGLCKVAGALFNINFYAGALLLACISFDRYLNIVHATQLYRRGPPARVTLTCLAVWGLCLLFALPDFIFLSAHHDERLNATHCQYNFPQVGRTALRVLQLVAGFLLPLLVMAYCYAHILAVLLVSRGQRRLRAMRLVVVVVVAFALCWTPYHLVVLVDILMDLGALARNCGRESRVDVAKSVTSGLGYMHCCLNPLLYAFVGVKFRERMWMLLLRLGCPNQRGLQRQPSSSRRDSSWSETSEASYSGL

IC50 [nM] | Compound
80.2 | C[C@@H]1CN(c2cccc3c2CN(C(=O)[C@@H]2CCCc4ccccc42)CC3)CCN1C(=O)Cn1cnc2cccnc21 [Example 71, 2-Imidazo[4,5-b]pyridin-3-yl-1-{(R)-2-methyl-4-[2-((R)-1,2,3,4-tetrahydro-naphthalene-1-carbonyl)-1,2,3,4-tetrahydro-isoquinolin-8-yl]-piperazin-1-yl}-ethanone]
92.2 | C[C@@H]1CN(c2cccc3c2CN(C(=O)c2ccccc2)CC3)CCN1C(=O)Cn1cnc2cccnc21 [Example 72, 1-[(R)-4-(2-Benzoyl-1,2,3,4-tetrahydro-isoquinolin-8-yl)-2-methyl-piperazin-1-yl]-2-imidazo[4,5-b]pyridin-3-yl-ethanone]
111 | Cc1ccc(C(=O)N2CCc3cccc(N4CCN(C(=O)Cn5cnc6cccnc65)[C@H](C)C4)c3C2)cc1 [Example 73, 2-Imidazo[4,5-b]pyridin-3-yl-1-{(R)-2-methyl-4-[2-(4-methyl-benzoyl)-1,2,3,4-tetrahydro-isoquinolin-8-yl]-piperazin-1-yl}-ethanone]
46.6 | C[C@@H]1CN(c2cccc3c2CN(C(=O)c2ccc(Cl)cc2)CC3)CCN1C(=O)Cn1cnc2cccnc21 [Example 74, 1-{(R)-4-[2-(4-Chloro-benzoyl)-1,2,3,4-tetrahydro-isoquinolin-8-yl]-2-methyl-piperazin-1-yl}-2-imidazo[4,5-b]pyridin-3-yl-ethanone]
17 | C[C@@H]1CN(c2cccc3c2CN(C(=O)c2ccc(Cl)c(Cl)c2)CC3)CCN1C(=O)Cn1cnc2cccnc21 [Example 75, 1-{(R)-4-[2-(3,4-Dichloro-benzoyl)-1,2,3,4-tetrahydro-isoquinolin-8-yl]-2-methyl-piperazin-1-yl}-2-imidazo[4,5-b]pyridin-3-yl-ethanone]
82.4 | C[C@@H]1CN(c2cccc3c2CN(C(=O)c2cccc(N(C)C)c2)CC3)CCN1C(=O)Cn1cnc2cccnc21 [Example 76, 1-{(R)-4-[2-(3-Dimethylamino-benzoyl)-1,2,3,4-tetrahydro-isoquinolin-8-yl]-2-methyl-piperazin-1-yl}-2-imidazo[4,5-b]pyridin-3-yl-ethanone]
92.3 | C[C@@H]1CN(c2cccc3c2CN(C(=O)c2ccc(C(F)(F)F)cc2)CC3)CCN1C(=O)Cn1cnc2cccnc21 [Example 77, 2-Imidazo[4,5-b]pyridin-3-yl-1-{(R)-2-methyl-4-[2-(4-trifluoromethyl-benzoyl)-1,2,3,4-tetrahydro-isoquinolin-8-yl]-piperazin-1-yl}-ethanone]
216 | C[C@@H]1CN(c2cccc3c2CN(C(=O)Cc2ccccc2)CC3)CCN1C(=O)Cn1cnc2cccnc21 [Example 78, 2-Imidazo[4,5-b]pyridin-3-yl-1-[(R)-2-methyl-4-(2-phenylacetyl-1,2,3,4-tetrahydro-isoquinolin-8-yl)-piperazin-1-yl]-ethanone]
570 | C[C@@H]1CN(c2cccc3c2CN(C(=O)[C@H](C)c2ccccc2)CC3)CCN1C(=O)Cn1cnc2cccnc21 [Example 79, (R)-1-{8-[(R)-4-(2-Imidazo[4,5-b]pyridin-3-yl-acetyl)-3-methyl-piperazin-1-yl]-3,4-dihydro-1H-isoquinolin-2-yl}-2-phenyl-propan-1-one]
199 | C[C@@H]1CN(c2cccc3c2CN(C(=O)C2(c4ccccc4)CC2)CC3)CCN1C(=O)Cn1cnc2cccnc21 [Example 80, 2-Imidazo[4,5-b]pyridin-3-yl-1-{(R)-2-methyl-4-[2-(1-phenyl-cyclopropanecarbonyl)-1,2,3,4-tetrahydro-isoquinolin-8-yl]-piperazin-1-yl}-ethanone]
65.1 | C[C@@H]1CN(c2cccc3c2CN(C(=O)COc2ccccc2)CC3)CCN1C(=O)Cn1cnc2cccnc21 [Example 81, 2-Imidazo[4,5-b]pyridin-3-yl-1-{(R)-2-methyl-4-[2-(2-phenoxy-acetyl)-1,2,3,4-tetrahydro-isoquinolin-8-yl]-piperazin-1-yl}-ethanone]
88.1 | C[C@@H]1CN(c2cccc3c2CN(C(=O)CCc2ccc(Cl)cc2)CC3)CCN1C(=O)Cn1cnc2cccnc21 [Example 82, 3-(4-Chloro-phenyl)-1-{8-[(R)-4-(2-imidazo[4,5-b]pyridin-3-yl-acetyl)-3-methyl-piperazin-1-yl]-3,4-dihydro-1H-isoquinolin-2-yl}-propan-1-one]
450 | C[C@@H]1CN(c2cccc3c2CN(C(=O)CCc2ccccc2)CC3)CCN1C(=O)Cn1cnc2cccnc21 [Example 83, 1-{8-[(R)-4-(2-Imidazo[4,5-b]pyridin-3-yl-acetyl)-3-methyl-piperazin-1-yl]-3,4-dihydro-1H-isoquinolin-2-yl}-3-phenyl-propan-1-one]
99.7 | C[C@@H]1CN(c2cccc3c2CN(C(=O)CCc2ccc(Cl)c(Cl)c2)CC3)CCN1C(=O)Cn1cnc2cccnc21 [Example 84, 3-(3,4-Dichloro-phenyl)-1-{8-[(R)-4-(2-imidazo[4,5-b]pyridin-3-yl-acetyl)-3-methyl-piperazin-1-yl]-3,4-dihydro-1H-isoquinolin-2-yl}-propan-1-one]
866 | C[C@@H]1CN(c2cccc3c2CN(C(=O)c2ccc4ncccc4c2)CC3)CCN1C(=O)Cn1cnc2cccnc21 [Example 85, 2-Imidazo[4,5-b]pyridin-3-yl-1-{(R)-2-methyl-4-[2-(quinoline-6-carbonyl)-1,2,3,4-tetrahydro-isoquinolin-8-yl]-piperazin-1-yl}-ethanone]
686 | C[C@@H]1CN(c2cccc3c2CN(C(=O)Cn2cnc4ccccc42)CC3)CCN1C(=O)Cn1cnc2cccnc21 [Example 86, 1-{(R)-4-[2-(2-Benzoimidazol-1-yl-acetyl)-1,2,3,4-tetrahydro-isoquinolin-8-yl]-2-methyl-piperazin-1-yl}-2-imidazo[4,5-b]pyridin-3-yl-ethanone]
5420 | C[C@@H]1CN(c2cccc3c2CN(C(=O)Cn2cccn2)CC3)CCN1C(=O)Cn1cnc2cccnc21 [Example 87, 2-Imidazo[4,5-b]pyridin-3-yl-1-{(R)-2-methyl-4-[2-(2-pyrazol-1-yl-acetyl)-1,2,3,4-tetrahydro-isoquinolin-8-yl]-piperazin-1-yl}-ethanone]
1910 | C[C@@H]1CN(c2cccc3c2CN(C(=O)CN2CCOCC2)CC3)CCN1C(=O)Cn1cnc2cccnc21 [Example 88, 2-Imidazo[4,5-b]pyridin-3-yl-1-{(R)-2-methyl-4-[2-(2-morpholin-4-yl-acetyl)-1,2,3,4-tetrahydro-isoquinolin-8-yl]-piperazin-1-yl}-ethanone]
955 | C[C@@H]1CN(c2cccc3c2CN(C(=O)c2ccnn2C)CC3)CCN1C(=O)Cn1cnc2cccnc21 [Example 89, 2-Imidazo[4,5-b]pyridin-3-yl-1-{(R)-2-methyl-4-[2-(2-methyl-2H-pyrazole-3-carbonyl)-1,2,3,4-tetrahydro-isoquinolin-8-yl]-piperazin-1-yl}-ethanone]
11.2 | Cc1ccc(N2CCc3cccc(N4CCN(C(=O)Cn5cnc6cccnc65)[C@H](C)C4)c3C2)nc1 [Example 90, 2-Imidazo[4,5-b]pyridin-3-yl-1-{(R)-2-methyl-4-[2-(5-methyl-pyridin-2-yl)-1,2,3,4-tetrahydro-isoquinolin-8-yl]-piperazin-1-yl}-ethanone]
8.01 | C[C@@H]1CN(c2cccc3c2CN(c2ccc(F)cn2)CC3)CCN1C(=O)Cn1cnc2cccnc21 [Example 91, 1-{(R)-4-[2-(5-Fluoro-pyridin-2-yl)-1,2,3,4-tetrahydro-isoquinolin-8-yl]-2-methyl-piperazin-1-yl}-2-imidazo[4,5-b]pyridin-3-yl-ethanone]
0.97 | Cc1ccc(N2CCc3cccc(N4CCN(C(=O)Cn5cnc6cccnc65)[C@H](C)C4)c3C2)cn1 [Example 92, 2-Imidazo[4,5-b]pyridin-3-yl-1-{(R)-2-methyl-4-[2-(6-methyl-pyridin-3-yl)-1,2,3,4-tetrahydro-isoquinolin-8-yl]-piperazin-1-yl}-ethanone]
7.55 | C[C@@H]1CN(c2cccc3c2CN(c2ccc(Cl)cc2)CC3)CCN1C(=O)Cn1cnc2cccnc21 [Example 93, 1-{(R)-4-[2-(4-Chloro-phenyl)-1,2,3,4-tetrahydro-isoquinolin-8-yl]-2-methyl-piperazin-1-yl}-2-imidazo[4,5-b]pyridin-3-yl-ethanone]
61.9 | COc1ccccc1N1CCc2cccc(N3CCN(C(=O)Cn4cnc5cccnc54)[C@H](C)C3)c2C1 [Example 94, 2-Imidazo[4,5-b]pyridin-3-yl-1-{(R)-4-[2-(2-methoxy-phenyl)-1,2,3,4-tetrahydro-isoquinolin-8-yl]-2-methyl-piperazin-1-yl}-ethanone]
7.8 | C[C@@H]1CN(c2cccc3c2CN(c2ccc(C#N)cc2)CC3)CCN1C(=O)Cn1cnc2cccnc21 [Example 95, 4-{8-[(R)-4-(2-Imidazo[4,5-b]pyridin-3-yl-acetyl)-3-methyl-piperazin-1-yl]-3,4-dihydro-1H-isoquinolin-2-yl}-benzonitrile]
25.5 | C[C@@H]1CN(c2cccc3c2CN(c2ccc(C(F)(F)F)cc2)CC3)CCN1C(=O)Cn1cnc2cccnc21 [Example 96, 2-Imidazo[4,5-b]pyridin-3-yl-1-{(R)-2-methyl-4-[2-(4-trifluoromethyl-phenyl)-1,2,3,4-tetrahydro-isoquinolin-8-yl]-piperazin-1-yl}-ethanone]
4.38 | COc1cccc(N2CCc3cccc(N4CCN(C(=O)Cn5cnc6cccnc65)[C@H](C)C4)c3C2)c1 [Example 97, 2-Imidazo[4,5-b]pyridin-3-yl-1-{(R)-4-[2-(3-methoxy-phenyl)-1,2,3,4-tetrahydro-isoquinolin-8-yl]-2-methyl-piperazin-1-yl}-ethanone]
11.6 | C[C@@H]1CN(c2cccc3c2CN(c2ccc(OC(F)(F)F)cc2)CC3)CCN1C(=O)Cn1cnc2cccnc21 [Example 98, 2-Imidazo[4,5-b]pyridin-3-yl-1-{(R)-2-methyl-4-[2-(4-trifluoromethoxy-phenyl)-1,2,3,4-tetrahydro-isoquinolin-8-yl]-piperazin-1-yl}-ethanone]
